Positions of bridges follow the written chain, without caps; N, C: chain ends. No end group written: not given here.
How the values were obtained:
[1] = cyclic peptide; cited from earlier work
streptavidin = conditions: AFM; streptavidin/biotin partners (Beebe et al.) ref 40, 41; cited from earlier work
[2] = test system: adipose-derived stem cells (ADSCs); assay: ADSC attachment and spreading on protein crystals; assay type: cell-based, human; conditions: protein crystal surface passivated by covalent attachment of PEG; data not shown
CJ^OPT protein crystal = test system: CJ^OPT protein crystal; parameters: species or system Campylobacter jejuni

Molecule: CWDDGWLC (disulfide 1-8 (inferred)) [IntP]
- binding to RGD [1]: binds RGD

Molecule: O=C(O)CCCC[C@@H]1SC[C@@H]2NC(=O)N[C@@H]21 [biotin]
- ligand-receptor bond-rupture force (streptavidin): 442 ± 17 pN

Molecule: poly(ethylene glycol) [PEG]
- cell adhesion [2]: no cell adhesion
- adsorption of PEG from solution by crystals (CJ^OPT protein crystal): adsorbed by the crystals from solution within minutes

Reference: publication PMC10871713 (Materials today. Nano, 2023)
